Literature values, collected in US9643990B2, “Non-caloric sweeteners and methods for synthesizing” (Conagen Inc., priority 2014, dated 2017).

Details: background statement, no method given
In the case of `C=C1C[C@@]23CC[C@H]4[C@@](C)(CCC[C@@]4(C)C(=O)O[C@@H]4O[C@H](CO)[C@@H](O)[C@H](O)[C@H]4O)[C@@H]2CC[C@]1(O[C@@H]1O[C@H](CO)[C@@H](O)[C@H](O)[C@H]1O[C@@H]1O[C@H](CO)[C@@H](O)[C@H](O)[C@H]1O)C3` [stevioside, Stevioside], the “sweetness relative to sucrose” value is given as 100-150 times sweeter than sucrose.
For Dulcoside A, the “sweetness relative to sucrose” value is given as “about 30 times sweeter than sucrose”.
For Rebaudioside C, the “sweetness relative to sucrose” value is given as 40-60 times sweeter than sucrose.
